# Experimental data from ChEMBL document CHEMBL1938317, “Structure-based de novo design and biochemical evaluation of novel BRAF kinase inhibitors” (Bioorg Med Chem Lett, 2012).
# Biological target: Serine/threonine-protein kinase B-raf (Homo sapiens, UniProt P15056)
# Sequence (P15056 whole entry): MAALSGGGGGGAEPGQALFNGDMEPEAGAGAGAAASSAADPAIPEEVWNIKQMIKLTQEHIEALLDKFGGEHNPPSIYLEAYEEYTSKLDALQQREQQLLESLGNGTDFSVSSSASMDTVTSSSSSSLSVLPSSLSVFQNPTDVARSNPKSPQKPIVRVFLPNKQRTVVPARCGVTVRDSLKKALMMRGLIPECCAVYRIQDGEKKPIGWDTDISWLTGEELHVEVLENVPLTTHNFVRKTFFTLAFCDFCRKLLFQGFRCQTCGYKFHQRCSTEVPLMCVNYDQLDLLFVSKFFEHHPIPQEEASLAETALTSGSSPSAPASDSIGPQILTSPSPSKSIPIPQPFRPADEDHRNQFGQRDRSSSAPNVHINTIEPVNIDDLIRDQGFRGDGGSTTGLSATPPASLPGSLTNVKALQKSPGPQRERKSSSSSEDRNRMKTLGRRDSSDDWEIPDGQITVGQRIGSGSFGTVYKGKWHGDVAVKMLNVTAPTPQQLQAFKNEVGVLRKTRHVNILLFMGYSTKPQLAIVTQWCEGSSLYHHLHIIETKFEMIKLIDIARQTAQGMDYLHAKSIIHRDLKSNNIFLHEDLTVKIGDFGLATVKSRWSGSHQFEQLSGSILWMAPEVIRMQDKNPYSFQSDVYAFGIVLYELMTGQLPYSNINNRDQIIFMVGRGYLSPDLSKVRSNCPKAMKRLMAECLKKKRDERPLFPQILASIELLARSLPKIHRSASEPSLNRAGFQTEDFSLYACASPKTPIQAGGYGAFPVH
# Description: Inhibition of BRAF by high-throughput assay
row,Kd,Structure (SMILES)
1,9.4 µM,O=C(O)c1ccc(Nc2ncnc3nc[nH]c23)cc1
2,5.1 µM,Oc1ccc(-c2cccc3c(Nc4cccc(O)c4)nncc23)cc1
3,2.2 µM,Nc1nc(Nc2cccc(Br)c2)c2[nH]cnc2n1
4,0.79 µM,CC(=O)Nc1ccc(Nc2ncnc3nc[nH]c23)cc1
5,3.2 µM,Nc1nc(Nc2ccc(F)c(Cl)c2)c2nc[nH]c2n1
6,3.7 µM,COc1ccc(Nc2nncc3c(-c4ccc(O)cc4)cccc23)cc1
7,3.6 µM,Nc1nc(Nc2ccc(Cl)c(Cl)c2)c2nc[nH]c2n1
8,2.5 µM,NC(=O)COc1ccc(Nc2nncc3c(-c4ccc(O)cc4)cccc23)cc1
9,2 µM,Nc1nc(Nc2ccccc2O)c2[nH]cnc2n1
10,1.7 µM,Nc1nc(Nc2cccc(C(F)(F)F)c2)c2[nH]cnc2n1
11,3 µM,Nc1nc(Nc2cccc(Cl)c2)c2nc[nH]c2n1
12,4.1 µM,COc1cc(Nc2nc(N)nc3nc[nH]c23)cc(OC)c1OC
13,2.8 µM,CCC(=O)c1cccc(Nc2nc(N)nc3nc[nH]c23)c1
14,5.8 µM,Nc1nc(Nc2cccc(O)c2)c2[nH]cnc2n1
15,3.1 µM,COc1cc(Nc2nc(N)nc3[nH]cnc23)cc(OC)c1
16,4.8 µM,Nc1nc(Nc2cccc(F)c2)c2[nH]cnc2n1
17,5.2 µM,c1nc2c(Nc3ccc4c(c3)OCCO4)nc(Nc3ccc4c(c3)OCCO4)nc2[nH]1
18,4.7 µM,Cc1ccc(Nc2nncc3c(-c4ccc(O)cc4)cccc23)cc1
19,4.7 µM,NS(=O)(=O)c1ccc(Nc2nncc3c(-c4ccc(O)cc4)cccc23)cc1
20,5.1 µM,COc1ccc(Nc2nc(N)nc3[nH]cnc23)cc1OC
21,8 µM,NC(=O)Cc1ccc(Nc2nncc3c(-c4ccc(O)cc4)cccc23)cc1
22,9.6 µM,CN(C)C(=O)Cc1ccc(-c2cccc3c(Nc4cccc(O)c4)nncc23)cc1
